Measurements as given in patent US9045491B2, “Thienyl [3,2-D] pyrimidin-4-one compounds, preparation method, pharmaceutical compositions and use thereof” (SHANGHAI INSTITUTE OF MATERIA MEDICA, CHINESE ACADEMY OF …, priority 2011, dated 2015).

Key:
DPP IV = biological target: T1, DPP IV (Mus musculus, UniProt P28843); assay: DPP IV inhibitory activity in vivo: DPP IV activity in plasma of ICR mouse after single oral dose; conditions: oral 3 mg/kg, compared with Alogliptin and Vildagliptin (LAF237), FIG. 1-6
T1 construct: from tissue; host or cells: plasma of ICR mouse
T1 sequence (P28843 37-760 limits assumed): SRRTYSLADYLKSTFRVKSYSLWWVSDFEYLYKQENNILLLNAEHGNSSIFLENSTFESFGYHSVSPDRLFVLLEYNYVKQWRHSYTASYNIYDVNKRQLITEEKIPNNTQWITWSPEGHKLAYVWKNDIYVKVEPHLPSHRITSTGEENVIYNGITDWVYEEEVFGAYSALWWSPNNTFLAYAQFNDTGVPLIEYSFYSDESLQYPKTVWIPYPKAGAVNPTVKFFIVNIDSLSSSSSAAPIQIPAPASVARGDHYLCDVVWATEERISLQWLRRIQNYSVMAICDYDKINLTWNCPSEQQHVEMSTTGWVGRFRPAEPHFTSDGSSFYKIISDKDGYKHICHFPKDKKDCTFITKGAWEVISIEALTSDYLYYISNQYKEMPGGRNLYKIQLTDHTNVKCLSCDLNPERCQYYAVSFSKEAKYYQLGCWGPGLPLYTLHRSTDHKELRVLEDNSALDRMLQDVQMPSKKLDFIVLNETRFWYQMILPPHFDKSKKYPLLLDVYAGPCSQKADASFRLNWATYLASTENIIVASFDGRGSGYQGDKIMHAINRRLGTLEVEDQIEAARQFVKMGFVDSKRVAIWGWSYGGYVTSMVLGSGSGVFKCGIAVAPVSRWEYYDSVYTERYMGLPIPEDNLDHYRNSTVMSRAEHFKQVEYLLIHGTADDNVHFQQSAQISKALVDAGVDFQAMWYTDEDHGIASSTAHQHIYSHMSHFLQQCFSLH
Method: Animals: ICR mouse (8-10 weeks old; sex: male; 25 g-30 g of body weight, purchased from Shanghai SLAC Laboratory Animal Center).
Meanwhile the solvent group was used as blank control. The blood was taken from orbital venous plexus of the mouse before administration, and 30, 60, 2 h, 4 h, 6 h, 8 h and […] after administration, respectively and loaded into Eppendorf tube (Qizhong Industrial (Shanghai) co., Ltd.) treated by anticoagulant. The plasma was obtained by centrifugation and DPP IV activity was determined.

normal ICR mouse = assay: Oral glucose tolerance test (OGTT), acute hypoglycemic effect of single oral dose; type: in vivo; conditions: for hypoglycemic ability in vivo, oral glucose tolerance test: single dose 3 mg/kg by gavage, glucose 2.5 g/kg after 6 hours, FIGS. 7-10
Method: Acute hypoglycemic effect of single dose through mouth on the normal ICR mouse
Animal: ICR mouse (8-10 weeks old, sex: male, weight: 25-30 g, purchased from Shanghai SLAC Laboratory Animal Center).
1. Two days before the experiment, the food consumption was recorded and the daily food consumption of each animal was calculated;
2. The animals fasted overnight (⅓ of daily food consumption was provided, about 2 g);
3. The blood glucose was measured on the second day.
4. The medicament was administrated through gavage (1 mouse/min). After 6 hours, the blood glucose was measured. Glucose was administrated through gavage according to the body weight (2.5 g/kg). The blood glucose value was monitored at 30 min, 60 min, 90 min, and 120 min after administration.

[1] = Safety evaluation: single dose 100 mg/kg by gavage, one week observation; type: in vivo, ICR mouse; conditions: for body weight and viscera index versus normal control group (in words) / acute toxicity / kidney index versus normal control group (in words): ICR mouse; for body weight and viscera index versus normal control group (in words) / Kidney index / Liver index / Spleen index / body weight / food consumption: 100 mg/kg single dose; for acute toxicity: 100 mg/kg single dose by gavage, one week; for kidney index versus normal control group (in words): 100 mg/kg, 7th day after administration; for Kidney index / Liver index / Spleen index / body weight / food consumption: normal ICR mouse; for Kidney index / Liver index / Spleen index: 7th day
Method: After grouping, each compound was administrated once through gavage according to the dose of 100 mg/kg at the same time.

Structure (SMILES) | DPP IV activity of ICR mouse plasma after single dose (given as hypoglycemic ability in vivo) (DPP IV) | hypoglycemic ability in vivo, oral glucose tolerance test (normal ICR mouse) | body weight and viscera index versus normal control group (in words) [1] | acute toxicity [1] | kidney index versus normal control group (in words) [1] | Kidney index [1] | Liver index [1] | Spleen index [1] | body weight ([1]; 1 d after administration) | food consumption ([1]; 1 d after administration) | body weight ([1]; 2 d after administration) | food consumption ([1]; 2 d after administration) | body weight ([1]; 3 d after administration) | food consumption ([1]; 3 d after administration) | body weight ([1]; 4 d after administration) | food consumption ([1]; 4 d after administration) | body weight ([1]; 5 d after administration) | food consumption ([1]; 5 d after administration) | body weight ([1]; 6 d after administration) | food consumption ([1]; 6 d after administration) | further results
COC(=O)c1csc2c(=O)n(Cc3ccccc3C#N)c(N3CCC[C@@H](N)C3)nc12 [DC291009] | comparable to that of Alogliptin (3 mg), and better than that of Vildagliptin (LAF237, 15 mg) | comparable to that of Alogliptin | no statistical difference | did not reflect obvious acute toxicity | slightly lower than that of normal control group | 1.4 ± 0.1% | 5.3 ± 0.2% | 0.4 ± 0.1% | 31.3 ± 2.0 g | 21.2 g · day^−1 · cage^−1 | 31.5 ± 2.3 g | 21.3 g · day^−1 · cage^−1 | 31.8 ± 2.3 g | 22.6 g · day^−1 · cage^−1 | 32.3 ± 2.2 g | 22.8 g · day^−1 · cage^−1 | 32.4 ± 2.5 g | 22.2 g · day^−1 · cage^−1 | 32.6 ± 2.6 g | 21.9 g · day^−1 · cage^−1 | hypoglycemic ability in vivo, oral glucose tolerance test after multiple single-dose administration (normal ICR mouse; single administration at multiple doses, FIGS. 11-12): comparable to that of Alogliptin; body weight ([1]; 7 d after administration): 33 ± 2.6 g; food consumption ([1]; 7 d after administration): 23.8 g · day^−1 · cage^−1; body weight ([1]; before administration): 30.8 ± 2.2 g; food consumption ([1]; before administration): 23.3 g · day^−1 · cage^−1
N#Cc1ccccc1Cn1c(N2CCC[C@@H](N)C2)nc2cc(C(Br)Br)sc2c1=O [DC291411] | comparable to that of Alogliptin (3 mg), and better than that of Vildagliptin (LAF237, 15 mg) | comparable to that of Alogliptin | no statistical difference | did not reflect obvious acute toxicity | slightly lower than that of normal control group | 1.4 ± 0.1% | 5.0 ± 0.4% | 0.4 ± 0.0% | 30.5 ± 1.6 g | 19.3 g · day^−1 · cage^−1 | 31.2 ± 1.6 g | 21.3 g · day^−1 · cage^−1 | 31.0 ± 1.7 g | 18.8 g · day^−1 · cage^−1 | 31.5 ± 1.9 g | 18.3 g · day^−1 · cage^−1 | 31.8 ± 1.5 g | 17.7 g · day^−1 · cage^−1 | 31.6 ± 1.8 g | 20.5 g · day^−1 · cage^−1 | body weight ([1]; 7 d after administration): 32.1 ± 1.7 g; food consumption ([1]; 7 d after administration): 21.9 g · day^−1 · cage^−1; body weight ([1]; before administration): 30 ± 1.5 g; food consumption ([1]; before administration): 20.8 g · day^−1 · cage^−1
